Results on two molecules are retold here after patent US9920069B2, “Compounds for treatment of fluoroquinolone-resistant bacteria” (The Board of Trustees of the University of Illinois, priority 2014, dated 2018).

SMILES strings stand for the structures. Values after ≈ are worked out from the molar mass of the structure shown. Read-outs that look alike come from different tables or passages of the source. Bounds are passed on as bounds.

One data set has as its system Herring Sperm DNA. The class given is binding. To be noted: 30 min, pH 7.5. As for the experimental part:
FIG. 12. In vitro toxicity. A) Hemolysis assay. Human red blood cells were co-incubated with compound. After incubation for 2 h at 37° C., the supernatant was analyzed for hemolysis. Each compound was tested either at 160 μg mL^−1 or at the highest concentration which its solubility allowed. Concentrations (μg mL^−1) are indicated in parenthesis. The negative control is DMSO and the positive control is water. Data shown is from three independent replicates±SEM. B) Ethidium bromide (EtBr) intercalation assay. Compounds were incubated with Herring Sperm DNA, ethidium bromide, and compound of interest for 30 minutes. The solutions were then analyzed for ethidium bromide fluorescence. Any decrease in percentage fluorescence is indicative of compound intercalation. Doxorubicin (DOX) was used as a positive control.
These assays were performed as previously described (Bair et al. J. Am. Chem. Soc. 132, 5469-5478, (2010)). The ability of DNM-2 to intercalate into DNA was measured by an ethidium bromide displacement assay. Herring Sperm DNA (34 μg/mL final) was premixed with buffer containing ethidium bromide (50 mM Tris base, 100 mM NaCl, 1 mM EDTA, 5 μM EtBr, pH=7.5). 95 μL of this solution was added to a 96 well plate containing 5 μL of DMSO solutions of compounds. […] Fluorescence was then read on a Gemini microplate reader (Molecular Devices, excitation=545 nm, emission=595 nm).

A short description of data set [1]: Pharmacokinetic assessment, serum by HPLC. The class given is in vivo, C57BL/6 mice. To be noted: mouse serum. As for the experimental part: FIG. 13. Pharmacokinetic analysis of DNM, DNM-2, and DNM-3. C57/BL6 mice were treated with 50 mg kg^−1 DNM, DNM-2, or DNM-3 via oral gavage. After the indicated time points (15, 30, 60, 120, 240, and 480 min), mice were sacrificed and the serum concentrations of DNM, DNM-2, and DNM-3 was determined by HPLC.
The animal studies (PK, in vivo toxicity and in vivo efficacy) were carried out in strict accordance with the recommendations in the Guide for the Care and Use of Laboratory Animals of the National Institutes of Health. […] In these studies, 10-12 week old female C57BL/6 mice purchased from Charles River were used. DNM, DNM-2, and DNM-3 were formulated as slurries at 8.3 mg mL^−1 in 25% Cremophor RH40/water (v/v). Before beginning the pharmacokinetic assessment, mice were first tested for their ability to tolerate the DNM, DNM-2, and DNM-3 at 50 mg kg^−1 (p.o.). […] At specified time points, mice were sacrificed and blood was collected, centrifuged, and the serum was frozen at −80° C. until analysis. The proteins in a 50 μL aliquot of serum were precipitated by the addition of 50 μL of acetonitrile and the sample was centrifuged to remove the proteins. Serum concentrations of DNM, DNM-2, and DNM-3 were determined by HPLC. PK parameters were determined using GraphPad Prism Version 5.00 for Windows.

Data set [2] deals with VRE harboring the S83I mutation (GyrA). Nature of the data set: microbe, parasite or virus in culture. The class given is cell-based. To be noted: Enterococcus.
Data set [3] concerns normal (i.e. non-cancerous) cell lines. To be noted: cited from earlier work.

Regarding `CCn1c(=O)cc(C)c2cc3c(C)cc(=O)n4c3c(c21)OC4` [DNM-2], the “concentration without significant DNA intercalation” value in the data set with Herring Sperm DNA is greater than 30 µM. Moreover, in data set [1] (50 mg kg^−1 oral dose), the AUC stood at 44 µg·h/mL and the “Cmax / peak serum concentration” value stood at 12.8 µg/mL. Besides, in data set [1] (50 mg kg^−1 oral dose, read-out: Cmax / peak serum concentration), the Cmax was 42.6 µM. In addition, in data set [1] (50 mg kg^−1 oral gavage), the area under the curve (AUC) worked out at 44 µg·h/mL, the Cmax was determined as 12.8 µg/mL, the Tmax was 1.2 h and the t1/2 stood at 0.9 h.

Consider `Cc1cc(=O)n(C)c2c3c4c(cc12)c(C)cc(=O)n4CO3` [DNM, deoxynybomycin], for which the MIC in data set [2] fell in the range of 0.125 to 1 mg/L (≈ 0.443 to 3.54 µM). In addition, the “toxicity to normal cell lines” value in data set [3] is “non-toxic”.

The AUC is the area under the concentration-time curve, a measure of exposure. Lower therefore signals low exposure. For orientation: Tmax means the time at which the peak concentration occurs.
